# Experimental data as given in publication PMC7036849, “Development of Coumarin-Based Hydroxamates as Histone Deacetylase Inhibitors with Antitumor Activities” (Molecules, 2020).
# Columns and labels:
# H157 = assay: SRB antiproliferative assay, H157; format: cell-based; settings: Homo sapiens, NCI-H157, 48 h, read-out: IC50 H157
# Experimental: Cancer cells (6 × 10^3 per well) were inoculated into 96-well plates. The treatment was carried out for 48 h, followed by SRB staining, and the absorption value was measured at 540 nm by a microplate reader. SAHA was used as a positive control, and the independent experiment was performed three times.
# MDA-MB-231 cells [1] = assay: Apoptosis analysis (annexin V, flow cytometry); settings: 48 h
# Experimental: Briefly, cell apoptosis analysis was measured by annexin V FITC/PI assay using Annexin v-PE/7-AAD Apoptosis Detection kit (BD). […] After 48 h, the drug-treated cells were washed three times with PBS; the cell suspension was collected and centrifuged; and the supernatant was removed.
# MDA-MB-231 cells [2] = assay: Cell cycle arrest analysis (PI, flow cytometry); settings: for cell cycle arrest: MDA-MB-231
# Experimental: After 24 h of cell cycle treatment, the cells were washed three times with PBS, and the cell suspension was collected, centrifuged again, and then added to an ethanol fixative (70%) and placed in a refrigerator for overnight storage. After washing, the dye was added and stained with PI containing RNaseA solution for 30 min at 37 °C, and then analyzed by FACS.
# [3] = system: human lung epithelial cells (Beas-2B); assay: Antiproliferative activity against normal cells, Beas-2B; format: cell-based; settings: read-out: Antiproliferative IC50 Beas-2B
# Text: (§1) Two normal cell lines were selected: human lung epithelial cells (Beas-2B) and human liver epithelial cells (L-02).
# [4] = system: human liver epithelial cells (L-02); assay: Antiproliferative activity against normal cells, L-02; format: cell-based; settings: Epithelial cell, read-out: Antiproliferative IC50 L-02
# Text: as §1
# acetyl-histone H3 = assay: Western blot analysis, acetyl-histone H3; format: cell-based, human; settings: MDA-MB-231, 1, 2 and 5 µM, 48 h
# Experimental: (§2) Based on the aforementioned results, western blot analysis was further performed by immunoblotting assay (β-actin as the negative control).
# (§3) Briefly, MDA-MB-231 cells were lysed in lysis buffer (50 mM Tris-HCl pH 8.0, 5 mM EDTA, 100 mM NaCl, 0.5% NP-40, 1 mM PMSF) and then centrifuged for 10 min at 12,000 r, and the insoluble debris was discarded. Cell lysates were further analyzed with SDS-PAGE and western blotting with indicated antibodies. After treatment with 13a and 13c for indicated times, cells were harvested with RIPA buffer (150 mM sodium chloride, 1% Triton X-100, 0.5% sodium deoxycholate, 0.1% SDS, 50 mM Tris and cocktails of protease and phosphatase inhibitors) for 10 min at room temperature and boiled for another 10 min. Equal amounts of total proteins (35 μg) underwent 15% SDS-PAGE and were electroblotted onto the polyvinylidene difluoride (PVDF) membrane. The membrane was blocked with 5% (w/v) fat-free dry milk in PBS-Tween 20 (PBST; 0.05%) for 1 h and incubated with primary antibody (1:1000 in PBST) at 4 °C overnight. […] The relative quantity of proteins was analyzed via the Image J software (NIH, Bethesda, MD, USA).
# (§4) (B) Quantitative analysis. The relative levels of Ac-H3 and Ac-H4 used to control β-actin were determined by densimetric scanning.
# acetyl-histone H4 = assay: Western blot analysis, acetyl-histone H4; format: cell-based, human; settings: MDA-MB-231, 1, 2 and 5 µM, 48 h
# Experimental: as §2, §3, §4
# MDA-MB-231 cells [5] = assay: Colony formation assay; settings: MDA-MB-231, seven days, compared with SAHA
# Experimental: One week after the addition of the drugs, the medium was removed. The cells were then washed three times with PBS and fixed in methanol for 5 min. The cells were lastly stained with 1% crystal violet (Beyotime) for 15 min and washed with PBS. Images were collected using a scanning apparatus (Canon, Tokyo, Japan).
# MDA-MB-231 = assay: SRB antiproliferative assay, MDA-MB-231; format: cell-based; settings: Homo sapiens, MDA-MB-231, 48 h, read-out: IC50 MDA-MB-231
# Experimental: (§5) Cancer cells (6 × 10^3 per well) were inoculated into 96-well plates. The treatment was carried out for 48 h, followed by SRB staining, and the absorption value was measured at 540 nm by a microplate reader.
# A549 = assay: SRB antiproliferative assay, A549; format: cell-based; settings: Homo sapiens, A549, 48 h, read-out: IC50 A549
# Experimental: as §5
# MCF-7 = assay: SRB antiproliferative assay, MCF-7; format: cell-based; settings: Homo sapiens, MCF7, 48 h, read-out: IC50 MCF-7
# Experimental: as §5
# solid tumor cell lines = assay: Antiproliferative activity, summary over tumor cell lines; format: cell-based; settings: Homo sapiens, read-out: IC50 values against solid tumor cell lines (range)
# Experimental: as §5
# HDAC1 = HDAC1 (Homo sapiens, UniProt Q13547); assay: HDAC1 inhibitory assay (Boc-Lys(Ac)-AMC substrate); format: biochemical; settings: n ≥ 3, SD <20% of the mean; read-out: IC50 against HDAC1
# Chain of HDAC1 (Q13547 whole entry): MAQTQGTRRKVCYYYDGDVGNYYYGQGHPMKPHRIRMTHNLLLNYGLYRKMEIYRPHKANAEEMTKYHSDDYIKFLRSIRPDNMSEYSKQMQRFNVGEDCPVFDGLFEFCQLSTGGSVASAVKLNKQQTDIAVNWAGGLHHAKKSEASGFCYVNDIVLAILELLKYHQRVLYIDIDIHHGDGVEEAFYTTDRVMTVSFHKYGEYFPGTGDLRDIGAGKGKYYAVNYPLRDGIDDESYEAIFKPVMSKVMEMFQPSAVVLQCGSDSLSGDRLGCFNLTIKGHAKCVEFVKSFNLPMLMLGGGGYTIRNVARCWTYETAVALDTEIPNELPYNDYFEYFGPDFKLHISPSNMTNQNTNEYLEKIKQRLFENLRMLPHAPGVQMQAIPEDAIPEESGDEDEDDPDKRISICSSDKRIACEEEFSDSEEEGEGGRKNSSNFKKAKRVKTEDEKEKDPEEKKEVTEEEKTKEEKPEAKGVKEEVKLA
# Experimental: The enzyme inhibitory assay was conducted by Shanghai ChemPartner Corporation (Shanghai, China). […] Then the lysine developer was added to terminate the reaction, and the samples were further incubated at 37 °C for 30 min. […] Three independent experiments with triplicate were carried out.
compound,measurement,setting,value
"O=C(CCCCCCC(=O)Nc1ccccc1)NO [Compound 1, vorinostat, reference compound]",IC50,H157,1.66 ± 0.14 µM
same,cell apoptosis,"MDA-MB-231 cells [1]; MDA-MB-231, 1 µM",7.3%
same,cell apoptosis,"MDA-MB-231 cells [1]; MDA-MB-231, 2 µM",12.6%
same,cells in G2/M phase,"MDA-MB-231 cells [2]; MDA-MB-231, 1 μM, 24 h",11.02%
"CCCOc1ccc2c(OCCCCCCCC(=O)NO)cc(=O)oc2c1 [Compound 13a, N-Hydroxy-8-((2-oxo-7-propoxy-2H-benzopyran-4-yl)oxy)octanoic acid]",IC50,H157,1.04 ± 0.08 µM
same,IC50,[3],> 50 µM
same,IC50,[4],> 50 µM
same,acetylation level of histone H3,acetyl-histone H3,increased the acetylation levels of histone H3 and H4 in a clearly dose-dependent manner
same,acetylation level of histone H4,acetyl-histone H4,increased the acetylation levels of histone H3 and H4 in a clearly dose-dependent manner
same,inhibition of colony formation,MDA-MB-231 cells [5],significant inhibition of the colony formation more potently than SAHA
same,cell apoptosis,"MDA-MB-231 cells [1]; MDA-MB-231, 1 µM",13.24%
same,cell apoptosis,"MDA-MB-231 cells [1]; MDA-MB-231, 2 µM",18.01%
same,cell cycle arrest,MDA-MB-231 cells [2],arrested MDA-MB-231 cells in a dose-dependent manner
"CCCCOc1ccc2c(OCCCCCCCC(=O)NO)cc(=O)oc2c1 [Compound 13b, N-Hydroxy-8-((7-butoxy-2-oxo-2H-benzopyran-4-yl)oxy)octanoic acid]",IC50,MDA-MB-231,1.97 ± 0.56 µM
same,IC50,H157,1.2 ± 0.17 µM
same,IC50,A549,4.09 ± 1.54 µM
same,IC50,MCF-7,2.93 ± 0.49 µM
same,IC50,[3],> 50 µM
same,IC50,[4],> 20 µM
"COCCOc1ccc2c(OCCCCCCCC(=O)NO)cc(=O)oc2c1 [Compound 13c, N-Hydroxy-8-((7-(2-methoxyethoxy)-2-oxo-2H-chromen-4-yl)oxy)octanoic acid]",IC50,H157,0.59 ± 0.03 µM
same,IC50,[3],> 100 µM
same,IC50,[4],> 100 µM
same,IC50,solid tumor cell lines,0.36 to 2.91 µM
same,acetylation level of histone H3,acetyl-histone H3,increased the acetylation levels of histone H3 and H4 in a clearly dose-dependent manner
same,acetylation level of histone H4,acetyl-histone H4,increased the acetylation levels of histone H3 and H4 in a clearly dose-dependent manner
same,inhibition of colony formation,MDA-MB-231 cells [5],significant inhibition of the colony formation more potently than SAHA
same,cell apoptosis,"MDA-MB-231 cells [1]; MDA-MB-231, 1 µM",19.26%
same,cell apoptosis,"MDA-MB-231 cells [1]; MDA-MB-231, 2 µM",25.14%
same,cell cycle arrest,MDA-MB-231 cells [2],arrested MDA-MB-231 cells in a dose-dependent manner
"COCCCOc1ccc2c(OCCCCCCCC(=O)NO)cc(=O)oc2c1 [Compound 13d, N-Hydroxy-8-((7-(3-methoxypropoxy)-2-oxo-2H-chromen-4-yl)oxy)octanoic acid]",IC50,MDA-MB-231,1.7 ± 0.39 µM
same,IC50,H157,2.36 ± 0.5 µM
same,IC50,A549,4.11 ± 0.65 µM
same,IC50,MCF-7,5.23 ± 1.63 µM
same,IC50,[3],> 20 µM
same,IC50,[4],> 20 µM
O=C(CCCCCCCOc1cc(=O)oc2cc(OCC3CCCCC3)ccc12)NO [Compound 13g],IC50,HDAC1,0.00501 µM
"O=C(CCCCCCCOc1cc(=O)oc2cc(OCc3ccccc3[N+](=O)[O-])ccc12)NO [Compound 14b, N-Hydroxy-8-((7-((2-nitrobenzyl)oxy)-2-oxo-2H-chromen-4-yl)oxy)octanoic acid]",IC50,HDAC1,0.00159 µM
"O=C(CCCCCCCOc1cc(=O)oc2cc(OCc3cccc([N+](=O)[O-])c3)ccc12)NO [Compound 14c, N-Hydroxy-8-((7-((3-nitrobenzyl)oxy)-2-oxo-2H-chromen-4-yl)oxy)octanoic acid]",IC50,HDAC1,0.00197 µM
"O=C(CCCCCCCOc1cc(=O)oc2cc(OCc3ccc([N+](=O)[O-])cc3)ccc12)NO [Compound 14d, N-Hydroxy-8-((7-((4-nitrobenzyl)oxy)2-oxo-2H-chromen-4-yl)oxy)octanoic acid]",IC50,HDAC1,0.00172 µM
"O=C(CCCCCCCOc1cc(=O)oc2cc(OCc3ccccc3Cl)ccc12)NO [Compound 14h, N-Hydroxy-8-((7-((2-chlorobenzyl)oxy)-2-oxo-2H-chromen-4-yl)oxy)octanoic acid]",IC50,HDAC1,0.0024 µM
"O=C(CCCCCCCOc1cc(=O)oc2cc(OCc3cccc(Cl)c3)ccc12)NO [Compound 14i, N-Hydroxy-8-((7-((3-chlorobenzyl)oxy)-2-oxo-2H-chromen-4-yl)oxy)octanoic acid]",IC50,HDAC1,0.00425 µM
"O=C(CCCCCCCOc1cc(=O)oc2cc(OCc3ccc(Cl)cc3)ccc12)NO [Compound 14j, N-Hydroxy-8-((7-((4-chlorobenzyl)oxy)-2-oxo-2H-chromen-4-yl)oxy)octanoic acid]",IC50,HDAC1,0.00252 µM
"O=C(CCCCCCCOc1cc(=O)oc2cc(OCc3ccc(Br)cc3)ccc12)NO [Compound 14k, N-Hydroxy-8-((7-((4-bromobenzyl)oxy)2-oxo-2H-chromen-4-yl)oxy)octanoic acid]",IC50,HDAC1,0.00302 µM
O=C(CCCCCCCOc1cc(=O)oc2cc(OCc3ccc(C(F)(F)F)cc3)ccc12)NO [Compound 14l],IC50,HDAC1,0.0055 µM
"O=C(CCCCCCCOc1cc(=O)oc2cc(OCc3c(F)cccc3F)ccc12)NO [Compound 14m, N-Hydroxy-8-((7-((2,6-difluorobenzyl)oxy)2-oxo-2H-chromen-4-yl)oxy)octanoic acid]",IC50,MDA-MB-231,1.95 ± 0.29 µM
same,IC50,H157,4.81 ± 0.8 µM
same,IC50,A549,7.58 ± 2.05 µM
same,IC50,MCF-7,6.05 ± 1.33 µM
"O=C(CCCCCCCOc1cc(=O)oc2cc(OCc3ccc(F)cc3Cl)ccc12)NO [Compound 14o, N-Hydroxy-8-((7-((2-chloro-4-fluorobenzyl)oxy)2-oxo-2H-chromen-4-yl)oxy)octanoic acid]",IC50,HDAC1,0.00322 µM
"Cc1ccccc1COc1ccc2c(OCCCCCCCC(=O)NO)cc(=O)oc2c1 [Compound 14p, N-Hydroxy-8-((7-((2-methylbenzyl)oxy)-2-oxo-2H-chromen-4-yl)oxy)octanoic acid]",IC50,HDAC1,0.00156 µM
"Cc1cccc(COc2ccc3c(OCCCCCCCC(=O)NO)cc(=O)oc3c2)c1 [Compound 14q, N-Hydroxy-8-((7-((3-methylbenzyl)oxy)-2-oxo-2H-chromen-4-yl)oxy)octanoic acid]",IC50,HDAC1,0.00295 µM
"Cc1ccc(COc2ccc3c(OCCCCCCCC(=O)NO)cc(=O)oc3c2)cc1 [Compound 14r, N-Hydroxy-8-((7-((4-methylbenzyl)oxy)2-oxo-2H-chromen-4-yl)oxy)octanoic acid]",IC50,HDAC1,0.0025 µM
"Cc1cccc(C)c1COc1ccc2c(OCCCCCCCC(=O)NO)cc(=O)oc2c1 [Compound 14s, N-Hydroxy-8-((7-((2,6-dimethylbenzyl)oxy)-2-oxo-2H-chromen-4-yl)oxy)octanoic acid]",IC50,HDAC1,0.00519 µM
